{"source": "patent US9586994B2", "about": "“CD44V6-derived peptides for treating breast cancer” (KARLSRUHER INSTITUT FÜR TECHNOLOGIE, priority 2012, dated 2017)", "test_system": "CD44v6", "assay": "HGF-induced activation of Met and Erk in HT29 cells (Western blot)", "assay_type": "cell-based, human", "procedure": "FIG. 28: A: Activation of Met and signal transduction induced by HGF depends on CD44v6 in L3.6pl cells. L3.6pl cells were treated with the human v6 peptide (human v6 14mer) or the rat v6 peptide as control prior to induction with 10 ng/ml HGF. Activation of Met and ERK was determined in western blot. The numbers refer to the fold induction. The experiment was repeated at least 5 times. B: Activation of c-Met and signal transduction induced by HGF depends on CD44v6 HeLa cells. Starved HeLa cells respectively HT29 cells were incubated with the v6 peptide (human v6 14mer) or a control peptide for 10 minutes at 37° C. and then induced with 25 ng/ml of HGF for the indicated time points. Cells were then either lysed and the lysates were subjected to Western Blot analysis for phospho-Met and Met. C: Activation of c-Met and signal transduction induced by HGF depends on CD44v6 in HT29 cells. HGF-induced c-Met and Erk phosphorylation in HT29 was determined as described above using phospho-specific antibodies. […]\nThe contribution of CD44v6 to Met signaling in the human epithelial pancreatic cancer cells L3.6pl (derived from Colo 357), the cervix carcinoma cells HeLa and the colon cancer cells HT29 were analysed using the CD44v6 peptide (v6 14mer; v6 5mer tested as well, data not shown).", "data": [{"sequence": "KEQWFGNRWHEGYR [SEQ ID NO: 6, human CD44v6 14mer peptide]", "values": [{"measurement": "HGF-induced activation of Met", "setting": "HT29, starved, peptide 10 min 37° C., HGF 25 ng/ml", "result": "able to prevent activation"}, {"measurement": "HGF-induced activation of downstream target Erk", "setting": "HT29, peptide before induction with HGF", "result": "able to prevent activation"}]}]}
